Article PMC10815578 (International Journal of Molecular Sciences, 2024)
Several values for one entry are separate records, joined by “and”; a condition that tells them apart may be missing. Equal values may be shown once. Read-outs that look alike come from different tables or passages of the source. One block for each molecule: values may come before it.

Tests used:
[1] = target: T1, OATP4C1 (Homo sapiens, UniProt Q6ZQN7); assay: Inhibition of OATP4C1-mediated T3 uptake in OATP4C1/MDCKII cells; settings: for inhibition at 10 min, 100 µM / inhibition at 10 min, 50 µM: human, pH 7.4, probe T3 (1 µM); for inhibition at 10 min, 50 µM: curcumin inhibition of OATP4C1-mediated transport, 50 µM curcumin; for alteration of OATP4C1-mediated transport (in words): 100 µM (theaflavin 50 µM)
T1 sequence (Q6ZQN7 1-724): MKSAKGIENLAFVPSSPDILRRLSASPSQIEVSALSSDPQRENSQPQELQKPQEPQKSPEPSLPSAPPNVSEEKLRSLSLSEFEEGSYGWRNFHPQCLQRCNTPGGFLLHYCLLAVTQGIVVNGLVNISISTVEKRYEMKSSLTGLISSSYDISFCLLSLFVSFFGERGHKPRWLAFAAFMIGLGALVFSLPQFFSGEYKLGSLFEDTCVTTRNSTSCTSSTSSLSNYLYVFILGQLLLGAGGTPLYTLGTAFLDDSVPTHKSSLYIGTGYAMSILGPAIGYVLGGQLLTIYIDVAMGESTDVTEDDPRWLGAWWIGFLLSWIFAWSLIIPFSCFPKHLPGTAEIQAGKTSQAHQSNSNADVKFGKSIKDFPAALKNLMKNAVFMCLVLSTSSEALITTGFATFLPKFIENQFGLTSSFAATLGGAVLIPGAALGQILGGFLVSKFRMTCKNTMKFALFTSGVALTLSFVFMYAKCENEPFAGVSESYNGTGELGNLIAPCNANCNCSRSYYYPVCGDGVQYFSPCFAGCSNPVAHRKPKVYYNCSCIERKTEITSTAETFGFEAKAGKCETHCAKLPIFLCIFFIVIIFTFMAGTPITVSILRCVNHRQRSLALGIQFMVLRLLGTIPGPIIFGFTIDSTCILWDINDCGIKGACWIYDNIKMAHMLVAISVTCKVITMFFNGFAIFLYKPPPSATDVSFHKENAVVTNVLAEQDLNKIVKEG

[2] = test system: OATP2B1; settings: Supplementary table, ref previous reports (superscript numbers), cited from earlier work; for IC50: read-out: OATP2B1 IC50
[3] = test system: OATP1B1; settings: cited from earlier work; for Ki: read-out: OATP1B1 Ki (asterisk)
[4] = test system: OATP1B3; settings: cited from earlier work; for IC50: read-out: OATP1B3 IC50; for IC50 / Ki: ref previous reports (superscript numbers); for Ki: read-out: OATP1B3 Ki (asterisk)
[5] = test system: P-gp; settings: Supplementary table; ref 40 of the supplement; cited from earlier work
[6] = test system: OAT1; settings: Supplementary table, cited from earlier work; for IC50: ref previous reports (superscript numbers)
[7] = test system: OAT3; settings: Supplementary table, cited from earlier work; for IC50: ref previous reports (superscript numbers)
[8] = OATP4C1 inhibition degree, 100 µM, Supplementary table
[9] = inhibition of OATP4C1-mediated transport, 100 µM compound, 1 µM T3, 10 min, 37 °C, without AA
[10] = read-out: OATP1B1 IC50, Supplementary table, ref previous reports (superscript numbers)
[11] = 100 µM compound, 1 µM T3, 10 min, 37 °C, without AA
[12] = Supplementary table, ref previous reports (superscript numbers)

inhibition at 10 min, 100 µM [1, 8]: 46%
inhibition at 10 min, 100 µM [1, 9]: 46%
SMILES: Oc1ccc(/C=C/c2cc(O)cc(O)c2)cc1 [resveratrol, Resveratrol]
IC50 [3, 10]: 9.1 µM
IC50 ([4]; Supplementary table): 11.6 µM
IC50 [5]: 6.64 µM
IC50 [2]: 8.3 µM

inhibition at 10 min, 50 µM ([1]; absence of AA, 1 µM T3, 10 min): 33%
inhibition at 10 min, 50 µM ([1]; presence of 10, 100 and 1000 µM AA, 1 µM T3, 10 min): 63 to 67%
SMILES: COc1cc(/C=C/C(=O)CC(=O)/C=C/c2ccc(O)c(OC)c2)ccc1O [curcumin]
IC50 ([3]; read-out: IC50 OATP1B1 transport, no antioxidant used): 3.8 µM
IC50 [3, 10]: 3.81 µM

alteration of OATP4C1-mediated transport (in words) ([1]; 1 µM T3, 10 min, without AA): did not inhibit
elevation of OATP4C1-mediated transport [1, 11]: 13%
OATP4C1 elevation degree ([1]; 100 µM, Supplementary table): 13%
OATP4C1 inhibition or elevation (class) ([1]; Supplementary table): Elevation
SMILES: O=c1oc2c(O)c(O)cc3c(=O)oc4c(O)c(O)cc1c4c23 [ellagic acid]
IC50 [6]: 0.207 µM

alteration of OATP4C1-mediated transport (in words) ([1]; 1 µM T3, 10 min, without AA): did not inhibit
OATP4C1 inhibition or elevation (class) ([1]; Supplementary table): No
SMILES: O=C(O)/C=C/c1ccc(O)c(O)c1 [caffeic acid, Caffeic acid]

Continued, molecule first:

SMILES: O=c1c(O[C@@H]2O[C@H](CO)[C@H](O)[C@H](O)[C@H]2O)c(-c2ccc(O)c(O)c2)oc2cc(O)cc(O)c12 [Hyperoside]
OATP4C1 inhibition or elevation (class) ([1]; Supplementary table): No
IC50 [2]: 29.4 ± 1.5 µM

SMILES: Oc1cc(O)c2cc(O)c(-c3ccc(O)c(O)c3)[o+]c2c1 [Cyanidin, Cyanidin chloride]
OATP4C1 inhibition or elevation (class) ([1]; Supplementary table): Yes
inhibition at 10 min, 100 µM [1, 8]: 24%

SMILES: O=c1cc(-c2ccc(O)cc2)oc2cc(O)cc(O)c12 [apigenin]
IC50 [7]: 0.41 ± 0.157 µM
inhibition of OATP4C1-mediated transport [1, 11]: 66%
OATP4C1 inhibition or elevation (class) ([1]; Supplementary table): Yes
inhibition at 10 min, 100 µM [1, 8]: 54%
inhibition at 10 min, 100 µM [1, 9]: ≥ 50%
IC50 [3, 10]: 53.4 ± 2.1 µM
Ki [3, 12]: 0.6 ± 0.2 µM
Ki ([4]; Supplementary table): 16.7 ± 1.6 µM
IC50 [6]: 0.212 ± 0.01 µM

SMILES: O=C(O)c1cc(O)c(O)c(O)c1 [gallic acid, Gallic acid]
IC50 ([4]; Supplementary table): 1.6 ± 0.6 µM

SMILES: O=C(O[C@@H]1Cc2c(O)cc(O)cc2O[C@@H]1c1cc(O)c(O)c(O)c1)c1cc(O)c(O)c(O)c1 [EGCG, epigallocatechin-3-gallate]
Ki ([7]; ref 27 of the supplement, read-out: OAT3 Ki (asterisk)): 162 ± 29 µM
alteration of OATP4C1-mediated transport (in words) ([1]; 1 µM T3, 10 min, without AA): did not inhibit
OATP4C1 inhibition or elevation (class) ([1]; Supplementary table): No
IC50 [3, 10]: 14.1 µM and 7.8 µM
OATP1B3 inhibition or elevation (class) ([4]; Supplementary table, ref 25 of the supplement): Elevation
IC50 ([4]; Supplementary table): 8.4 ± 0.6 µM
EC50 ([4]; read-out: OATP1B3 elevation EC50, mean ± S.E., ref 25 of the supplement): 10.5 ± 1.6 µM
Ki ([6]; ref 27 of the supplement, read-out: OAT1 Ki (asterisk)): 334 ± 58 µM
IC50 [2]: 101 ± 9 µM

SMILES: COc1cc(/C=C/C(=O)O)ccc1O [ferulic acid, Ferulic acid]
IC50 [7]: 7.35 ± 3.73 µM
alteration of OATP4C1-mediated transport (in words) ([1]; 1 µM T3, 10 min, without AA): did not inhibit
OATP4C1 inhibition or elevation (class) ([1]; Supplementary table): No
IC50 [6]: 9.01 µM

SMILES: O=c1c(O)c(-c2ccc(O)c(O)c2)oc2cc(O)cc(O)c12 [quercetin]
inhibitory effect on OATP4C1-mediated transport in the presence of AA compared with its absence ([1]; 100 µM compound, 10 µM AA): weakened
OATP4C1 inhibition or elevation (class) ([1]; Supplementary table): Yes
inhibition at 10 min, 100 µM [1, 8]: 50%
inhibition at 10 min, 100 µM [1, 9]: ≥ 50%
Ki [3, 12]: 8.8 ± 0.8 µM
IC50 ([4]; Supplementary table): 3.22 µM
Ki ([4]; Supplementary table): 7.8 ± 1.7 µM
Ki ([2]; read-out: OATP2B1 Ki (asterisk)): 8.7 ± 0.1 µM
